This is an account of results in PubChem BioAssay (NCI).

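1) Cells in 96-well plates. 2) Compound, 48 h, 5 concentrations. 3) Linear interpolation between surrounding doses. 4) Unreached endpoint = highest concentration. Definition used: TGI = concentration required for complete inhibition of growth.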

Holding throughout (experiment): growth of human tumour cells (NCI), 48 h
Assay [1] relates to CCRF-CEM leukemia.
Assay [2] deals with UACC-62 melanoma.
Assay [3] concerns K-562 leukemia.
In assay [4] the test system is OVCAR-5 ovarian.
In assay [5] the test system is MOLT-4 leukemia.
Assay [6] has as its system NCI/ADR-RES ovarian.
For assay [7], the system named is COLO 205 colon.
The test system of assay [8] is HL-60(TB) leukemia.
Assay [9] deals with RPMI-8226 leukemia.
For assay [10], the system named is NCI-H460 lung.
For assay [11], the system named is NCI-H226 lung.
Assay [12] has as its system 786-0 renal.
The subject of assay [13] is SK-OV-3 ovarian.
For assay [14], the system named is SR leukemia.
The test system of assay [15] is OVCAR-3 ovarian.
The test system of assay [16] is SW-620 colon.
In assay [17] the test system is SF-268 CNS.
Assay [18] relates to IGROV1 ovarian.
Assay [19] deals with T-47D breast.
The test system of assay [20] is MCF7 breast.

As to `CN=C(N)N/N=C(\C)c1ccc2oc3ccc(/C(C)=N/NC(N)=NC)cc3c2c1`, the TGI in assay [1] is 9.06 µM; in [2], > 23.8 µM; in [3], 15 µM; in [4], > 87 µM; in [5] it was 2.42 µM; in [6], > 100 µM. The TGI in assay [7] is > 100 µM; in [8] it was 10.7 µM; in assay [9], 6.41 µM; in assay [10], > 100 µM; in assay [11], 4.73 µM; in assay [12], > 100 µM. Also, the TGI in [13] is 74 µM; in assay [14], 4.75 µM; in assay [15], > 100 µM; in assay [16], 5.33 µM.
Consider `O=C(Nc1ccc([N+](=O)[O-])cc1)C(=O)C(C(=O)c1ccccc1F)C1OC(=O)c2ccccc21` (centres undefined), for which the TGI is 58.4 µM in assay [1]; > 100 µM in assay [2]; > 100 µM in assay [3]; > 100 µM in assay [4]; > 100 µM in [5]; > 100 µM in assay [17]. Moreover, the TGI in assay [7] was 68 µM; in [8], 66.1 µM; in [9], 68.9 µM; in [10] it was > 100 µM; in [11] it was 59.8 µM; in [18], > 100 µM. For the same molecule, the TGI in assay [13] is > 100 µM; in [14] it was 64.7 µM; in assay [16], > 100 µM.
As to `Cn1c(=O)nc2n(-c3ccc(Cl)cc3Cl)c3ccccc3nc-2c1=O`, the TGI in assay [2] was determined as 6.16 µM; in assay [3], 22.6 µM; in assay [4] it was 49 µM; in assay [5], 35.7 µM; in assay [17] it was 76 µM; in [7], 8.73 µM. Besides, the TGI in assay [8] is 27.8 µM; in assay [9], > 100 µM; in [18], 27 µM; in [13], 72.8 µM; in assay [14] it was > 100 µM; in assay [15], 5.59 µM.
In the case of `Cc1c2cnccc2nc2[nH]c3ccncc3c12`, the TGI in assay [1] was 32.6 µM; in assay [2] it was 41.5 µM; in assay [3] it was > 100 µM; in assay [4] it was 40.5 µM; in assay [19], > 100 µM; in assay [5], > 100 µM. Besides, the TGI was 7.62 µM in assay [17]; > 100 µM in [7]; 61.9 µM in assay [8]; 19.5 µM in [9]; 6.06 µM in assay [10]; 63.1 µM in assay [12]. The TGI in [18] is 20.4 µM; in [13], > 100 µM; in assay [14], 11.5 µM; in assay [15], 42.4 µM; in assay [16] it was 65.8 µM.
`CC(=O)O[C@]12CCC[C@H]1C1(O)C(O)CCC[C@H]12` (some centres undefined): the TGI in [1], in assay [2], in [3], in assay [5], in assay [17] and in assay [7] was > 100 µM throughout. The TGI in [8], in [9], in [10], in assay [11], in assay [12] and in assay [13] was > 100 µM throughout. In addition, the TGI in assay [14] and in assay [16] was > 100 µM each time.
Turning to `CC(Oc1ccc(OCC2CCCCC2)cc1)C(=O)N(CCO)CCO` (centres undefined), the TGI in assay [1], in assay [2], in assay [3], in assay [5], in assay [17] and in assay [8] was > 100 µM in each case. The TGI in assay [10], in [11], in [12], in [18], in assay [13] and in assay [15] was > 100 µM each time.
For the molecule `CCOC(=O)C(NC(=O)NC(C(=O)OCC)C(=O)OCC)C(=O)OCC`, the TGI in assay [2], in [3], in [4], in [5], in assay [17] and in assay [6] was > 100 µM throughout. The TGI in assay [9], in [10], in assay [20], in assay [11], in assay [12] and in [18] was > 100 µM throughout. In addition, the TGI in [13], in [14], in assay [15] and in [16] was > 100 µM in each case.
Regarding `Cc1cccc(Nc2cn(CCOc3ccccc3)c(=O)n(CCOc3ccccc3)c2=O)c1`, the TGI in assay [1], in assay [2], in assay [3], in assay [4], in [5] and in [17] was > 100 µM throughout. For the same molecule, the TGI in [7], in assay [9], in assay [10], in assay [20], in assay [12] and in assay [18] was > 100 µM in each case. Also, the TGI in assay [14], in [15] and in assay [16] was > 100 µM in each case.
With `Cc1ccc(-n2cnc3c(N/N=C4\SCC(=O)N4c4ccccc4)ncnc32)cc1`, the TGI in assay [1] is 4.93 µM; in assay [2] it was 17.2 µM; in assay [3] it was > 100 µM; in assay [4], 25.4 µM; in assay [19], 18.7 µM; in assay [5] it was 5.48 µM. Besides, the TGI in assay [17] was found to be 19.7 µM; in assay [6], 53.8 µM; in [7], 17.1 µM; in assay [8], 4.29 µM; in assay [10] it was 13.2 µM; in [11], 20.4 µM. Also, the TGI in assay [12] amounted to 12.1 µM; in assay [18], 15 µM; in assay [13], 27.7 µM; in assay [15], 11.5 µM; in [16], 16.5 µM.
